Source: ChEMBL document CHEMBL2380300, “Identification of new peptide amides as selective cathepsin L inhibitors: the first step towards selective irreversible inhibitors?” (Bioorg Med Chem Lett, 2013)

Assays:
[1] = species on record: Homo sapiens; assay: Selectivity ratio of Ka for recombinant cathepsin-L (unknown origin) to Ka for recombinant cathepsin-B (unknown origin)
[2] = target: Procathepsin L (Homo sapiens, UniProt P07711); assay: Irreversible inhibition of recombinant cathepsin-L (unknown origin) using Z-Phe-Arg-AMC as substrate
Procathepsin L, sequence (P07711 114-333 limits assumed): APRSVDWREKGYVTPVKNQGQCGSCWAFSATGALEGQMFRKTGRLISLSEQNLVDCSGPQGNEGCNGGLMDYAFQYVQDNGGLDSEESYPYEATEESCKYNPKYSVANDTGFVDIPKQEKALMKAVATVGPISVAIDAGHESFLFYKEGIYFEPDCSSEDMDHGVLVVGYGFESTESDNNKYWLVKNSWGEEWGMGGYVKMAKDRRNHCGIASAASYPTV

[3] = target: Cathepsin B (Homo sapiens, UniProt P07858); assay: Irreversible inhibition of recombinant cathepsin-B (unknown origin) using Z-Arg-Arg-AMC as substrate

Row | SMILES | Ratio [1] | Ka [2] | Ka [3]
1 | Cc1cccc(C)c1C(=O)OCC(=O)[C@H](CCCCN)NC(=O)[C@H](Cc1ccccc1)NC(=O)[C@H](CCCNC(=N)N)NC(=O)OCc1ccccc1 | 11.5 | 8.75 ×10⁵ /s/M | 0.76 ×10⁵ /s/M
2 | Cc1cccc(C)c1C(=O)OCC(=O)[C@H](CCCCN)NC(=O)[C@H](Cc1ccccc1)NC(=O)[C@H](CC(C)C)NC(=O)OCc1ccccc1 | 2 | 2.69 ×10⁵ /s/M | 1.36 ×10⁵ /s/M

The next lines start with the values.

Row | Ratio [1] | Ka [2] | Ka [3] | SMILES
3 | 6.9 | 3.92 ×10⁵ /s/M | 0.57 ×10⁵ /s/M | Cc1cccc(C)c1C(=O)OCC(=O)[C@H](CCCCN)NC(=O)[C@H](Cc1ccccc1)NC(=O)[C@H](Cc1c[nH]c2ccccc12)NC(=O)OCc1ccccc1
4 | 0.3 | 2.52 ×10⁵ /s/M | 8.22 ×10⁵ /s/M | Cc1cccc(C)c1C(=O)OCC(=O)[C@H](CCCCN)NC(=O)[C@H](Cc1ccccc1)NC(=O)[C@H](CCCCN)NC(=O)OCc1ccccc1
5 | 7.8 | 2.96 ×10⁵ /s/M | 0.38 ×10⁵ /s/M | Cc1cccc(C)c1C(=O)OCC(=O)[C@H](CCCCN)NC(=O)[C@H](Cc1ccccc1)NC(=O)OCc1ccccc1
